Data: patent US20080009418A1, “Selective Inhibitors” (Alchemia LTD., priority 2004, published 2008)

Tests used:
Human μ-opioid (MOP) = target: T1, Human μ-opioid (MOP) (Homo sapiens, UniProt P35372); test: Radioligand binding, human μ-opioid (MOP) membranes, FlashPlate, [3H]-Naloxone; settings: compound at 10 μM; for A7: inhibition of radioligand binding: [3H]-Naloxone
T1 construct: purchased Perkin Elmer Biosignal
Summary of the method: (§1)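 Cloned human receptor membranes were coated onto FlashPlate wells and incubated with radioligand and compound (added from a 0.5 mM DMSO daughter plate) for 1 hour at room temperature in the dark. Scintillation counting gave percent inhibition, with DMSO defining total and reference ligand defining non-specific binding.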

Human δ-opioid (DOP) = target: T2, Human δ-opioid (DOP) (Homo sapiens, UniProt P41143); test: Radioligand binding, human δ-opioid (DOP) membranes, FlashPlate, [3H]-Bremazocine; settings: compound at 10 μM; for A1: inhibition of radioligand binding: [3H]-Bremazocine
T2 construct: purchased Perkin Elmer Biosignal
Summary of the method: as §1

Human neurokinin (NK1) = target: T3, Human neurokinin (NK1) (Homo sapiens, UniProt P25103); test: Radioligand binding, human neurokinin NK1 membranes, filtration, [125I]-Substance P; settings: compound at 10 μM; for A8: inhibition of radioligand binding: [125I]-Substance P
T3 construct: purchased Perkin Elmer Biosignal
Summary of the method: (§2)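 Filtration binding on cloned human receptor membranes (1 Unit/well), [125I]-Substance P for NK1 and [3H]-Diprenorphine for KOP, 1 h at room temperature. Filters PEI-presoaked, washed with cold 50 mM Tris-HCl pH 7.4, counted by scintillation; percent inhibition calculated, reference ligand defining non-specific binding.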

Mouse urotensin (mUR2) = target: T4, Mouse urotensin (mUR2) (Mus musculus, UniProt Q8VIH9); test: Radioligand binding, mouse urotensin mUR2 membranes, FlashPlate, [125I]-Urotensin II; settings: compound at 10 μM; for A11: inhibition of radioligand binding: [125I]-Urotensin II
T4 construct: purchased Perkin Elmer Biosignal
T4 sequence (Q8VIH9 1-385): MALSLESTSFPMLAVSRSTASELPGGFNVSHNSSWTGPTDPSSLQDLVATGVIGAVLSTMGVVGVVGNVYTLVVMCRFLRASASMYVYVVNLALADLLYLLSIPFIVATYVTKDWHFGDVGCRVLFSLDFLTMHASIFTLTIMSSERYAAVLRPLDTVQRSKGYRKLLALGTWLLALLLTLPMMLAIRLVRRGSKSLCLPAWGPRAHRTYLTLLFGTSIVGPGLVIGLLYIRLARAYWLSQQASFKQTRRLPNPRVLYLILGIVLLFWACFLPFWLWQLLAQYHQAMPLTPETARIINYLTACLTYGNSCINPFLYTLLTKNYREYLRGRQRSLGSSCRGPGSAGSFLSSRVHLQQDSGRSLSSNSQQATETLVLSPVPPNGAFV
Summary of the method: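 Cloned mouse urotensin (mUR2) receptor membranes from Perkin Elmer Biosignal were immobilized in FlashPlate microplates using a proprietary coating. Each well got 19.5 μl buffer, then 0.5 μl of DMSO, reference ligand, or compound. Adding 5 μl of [125I]-Urotensin II, diluted to 5× final concentration in binding buffer, started binding. Plates were sealed with TopSeal-A and incubated 1 hour at room temperature in the dark. Wells were counted for 30 seconds each on a TopCount after a 60-second delay, and percentage inhibition was calculated.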

Human κ-Opioid (KOP) = target: T5, Human κ-Opioid (KOP) (Homo sapiens, UniProt P41145); test: Radioligand binding, human κ-opioid (KOP) membranes, filtration, [3H]-Diprenorphine; settings: compound at 10 μM; for A2: inhibition of radioligand binding: [3H]-Diprenorphine
T5 construct: purchased Perkin Elmer Biosignal
Summary of the method: as §2

Human Melanocortin (MC3) = target: T6, Human Melanocortin (MC3) (Homo sapiens, UniProt P41968); test: Radioligand binding, human melanocortin MC3 membranes, FlashPlate, [125I]-NDP-αMSH; settings: compound at 10 μM; for A3: inhibition of radioligand binding: [125I]-NDP-αMSH
T6 construct: purchased Perkin Elmer Biosignal
Summary of the method: as §1

Human opioid (ORL1) = target: T7, Human opioid (ORL1) (Homo sapiens, UniProt P41146); test: Radioligand binding, human opioid ORL1 membranes, FlashPlate, [125I]-Nociceptin; settings: compound at 10 μM; for A10: inhibition of radioligand binding: [125I]-Nociceptin
T7 construct: purchased Perkin Elmer Biosignal
Summary of the method: as §1

[1] = target: T8, Human neuropeptide Y (NPY-Y1) (Homo sapiens, UniProt P25929); test: Radioligand binding, human neuropeptide Y NPY-Y1 membranes, FlashPlate, [125I]-PYY; settings: compound at 10 μM; for A9: inhibition of radioligand binding: [125I]-PYY
T8 construct: purchased Perkin Elmer Biosignal
T8 sequence (P25929 1-384): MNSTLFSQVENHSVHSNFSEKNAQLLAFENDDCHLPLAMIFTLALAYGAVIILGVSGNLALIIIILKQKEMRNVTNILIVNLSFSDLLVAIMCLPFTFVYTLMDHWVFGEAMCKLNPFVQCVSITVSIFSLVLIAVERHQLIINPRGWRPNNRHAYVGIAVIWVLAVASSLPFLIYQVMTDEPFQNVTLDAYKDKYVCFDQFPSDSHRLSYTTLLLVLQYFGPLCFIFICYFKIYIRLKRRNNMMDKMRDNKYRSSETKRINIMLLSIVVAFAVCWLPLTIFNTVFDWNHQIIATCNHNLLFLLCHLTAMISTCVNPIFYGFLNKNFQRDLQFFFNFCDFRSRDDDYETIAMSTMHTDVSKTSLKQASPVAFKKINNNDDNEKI
Summary of the method: as §1

Human Melanocortin (MC4) = target: T9, Human Melanocortin (MC4) (Homo sapiens, UniProt P32245); test: Radioligand binding, human melanocortin MC4 membranes, FlashPlate, [125I]-NDP-αMSH; settings: compound at 10 μM; for A4: inhibition of radioligand binding: [125I]-NDP-αMSH
T9 construct: purchased Perkin Elmer Biosignal
Summary of the method: as §1

[2] = target: T10, Human melanin-concentrating hormone (MCH1) (Homo sapiens, UniProt Q99705); test: Radioligand binding, human melanin-concentrating hormone MCH1 membranes, FlashPlate, [125I]-S36057; settings: compound at 10 μM
T10 construct: purchased Perkin Elmer Biosignal
Summary of the method: as §1

Human melanocortin (MC5) = target: T11, Human melanocortin (MC5) (Homo sapiens, UniProt P33032); test: Radioligand binding, human melanocortin MC5 membranes, FlashPlate, [125I]-NDP-αMSH; settings: compound at 10 μM; for A5: inhibition of radioligand binding: [125I]-NDP-αMSH
T11 construct: purchased Perkin Elmer Biosignal
Summary of the method: as §1

T1 sequence (P35372 whole entry): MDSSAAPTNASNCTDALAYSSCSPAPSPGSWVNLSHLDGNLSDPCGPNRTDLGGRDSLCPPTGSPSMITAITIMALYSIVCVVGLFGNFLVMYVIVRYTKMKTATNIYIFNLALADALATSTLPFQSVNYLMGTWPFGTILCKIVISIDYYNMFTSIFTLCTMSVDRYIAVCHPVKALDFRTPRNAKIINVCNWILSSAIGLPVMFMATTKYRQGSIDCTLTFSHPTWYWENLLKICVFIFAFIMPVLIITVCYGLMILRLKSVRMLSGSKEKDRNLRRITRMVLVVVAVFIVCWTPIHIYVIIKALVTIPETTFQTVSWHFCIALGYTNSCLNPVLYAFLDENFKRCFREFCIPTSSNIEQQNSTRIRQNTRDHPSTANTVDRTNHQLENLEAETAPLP
T2 sequence (P41143 whole entry): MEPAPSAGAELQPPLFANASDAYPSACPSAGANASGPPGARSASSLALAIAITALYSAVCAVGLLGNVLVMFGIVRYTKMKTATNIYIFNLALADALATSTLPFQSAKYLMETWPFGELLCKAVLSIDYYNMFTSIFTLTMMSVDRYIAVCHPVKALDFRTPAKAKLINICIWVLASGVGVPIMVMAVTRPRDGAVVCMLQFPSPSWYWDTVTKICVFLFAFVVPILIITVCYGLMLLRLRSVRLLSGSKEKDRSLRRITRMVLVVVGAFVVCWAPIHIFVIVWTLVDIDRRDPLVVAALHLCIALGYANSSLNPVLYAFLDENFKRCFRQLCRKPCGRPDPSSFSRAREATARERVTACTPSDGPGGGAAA
T9 sequence (P32245 whole entry): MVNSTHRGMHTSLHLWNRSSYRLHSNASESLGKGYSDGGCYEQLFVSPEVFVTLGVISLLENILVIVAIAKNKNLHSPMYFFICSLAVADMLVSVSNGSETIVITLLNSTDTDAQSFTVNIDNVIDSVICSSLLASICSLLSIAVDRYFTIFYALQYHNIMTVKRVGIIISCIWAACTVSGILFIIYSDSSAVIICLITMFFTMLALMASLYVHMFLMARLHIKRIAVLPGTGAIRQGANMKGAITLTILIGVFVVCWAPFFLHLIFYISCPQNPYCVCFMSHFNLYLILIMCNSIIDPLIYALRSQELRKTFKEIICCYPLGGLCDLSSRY
T5 sequence (P41145 whole entry): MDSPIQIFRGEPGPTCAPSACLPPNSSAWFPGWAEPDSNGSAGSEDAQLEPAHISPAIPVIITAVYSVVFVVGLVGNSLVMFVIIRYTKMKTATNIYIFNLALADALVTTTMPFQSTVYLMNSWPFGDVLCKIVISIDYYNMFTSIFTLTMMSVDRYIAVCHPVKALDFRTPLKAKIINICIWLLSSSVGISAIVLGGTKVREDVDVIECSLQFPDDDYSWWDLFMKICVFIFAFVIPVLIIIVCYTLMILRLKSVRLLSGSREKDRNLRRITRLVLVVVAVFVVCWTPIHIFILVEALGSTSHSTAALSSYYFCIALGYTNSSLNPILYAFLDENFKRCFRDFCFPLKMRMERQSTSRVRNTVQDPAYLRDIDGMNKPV
T10 sequence (Q99705 whole entry): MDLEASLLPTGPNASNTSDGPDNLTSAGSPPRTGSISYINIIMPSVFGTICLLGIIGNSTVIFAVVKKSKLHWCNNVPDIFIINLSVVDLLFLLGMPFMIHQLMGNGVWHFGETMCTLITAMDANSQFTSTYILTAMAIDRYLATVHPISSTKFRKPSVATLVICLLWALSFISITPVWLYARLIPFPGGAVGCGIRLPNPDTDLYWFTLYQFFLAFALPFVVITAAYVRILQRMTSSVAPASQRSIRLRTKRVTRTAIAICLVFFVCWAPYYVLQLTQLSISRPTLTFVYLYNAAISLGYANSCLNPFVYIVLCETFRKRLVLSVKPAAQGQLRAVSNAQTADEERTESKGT
T6 sequence (P41968 whole entry): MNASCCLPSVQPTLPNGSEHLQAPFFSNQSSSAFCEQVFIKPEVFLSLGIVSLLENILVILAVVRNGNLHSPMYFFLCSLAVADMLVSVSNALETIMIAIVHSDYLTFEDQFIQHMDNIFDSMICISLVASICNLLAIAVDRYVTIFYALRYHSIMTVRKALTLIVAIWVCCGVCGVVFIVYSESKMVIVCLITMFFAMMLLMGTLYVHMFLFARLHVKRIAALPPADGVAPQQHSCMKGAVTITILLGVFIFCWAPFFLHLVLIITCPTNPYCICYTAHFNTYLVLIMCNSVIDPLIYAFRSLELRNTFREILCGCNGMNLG
T7 sequence (P41146 whole entry): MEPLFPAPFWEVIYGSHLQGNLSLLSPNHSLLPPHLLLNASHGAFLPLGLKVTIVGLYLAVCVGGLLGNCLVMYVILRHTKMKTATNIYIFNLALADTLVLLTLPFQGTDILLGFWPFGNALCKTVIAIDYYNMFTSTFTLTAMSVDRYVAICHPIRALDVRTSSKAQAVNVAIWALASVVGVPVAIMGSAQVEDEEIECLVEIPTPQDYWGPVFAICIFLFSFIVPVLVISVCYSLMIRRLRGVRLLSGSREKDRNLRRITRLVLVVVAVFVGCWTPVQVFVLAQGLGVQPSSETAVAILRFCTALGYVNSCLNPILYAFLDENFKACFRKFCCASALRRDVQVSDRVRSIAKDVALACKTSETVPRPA
T3 sequence (P25103 whole entry): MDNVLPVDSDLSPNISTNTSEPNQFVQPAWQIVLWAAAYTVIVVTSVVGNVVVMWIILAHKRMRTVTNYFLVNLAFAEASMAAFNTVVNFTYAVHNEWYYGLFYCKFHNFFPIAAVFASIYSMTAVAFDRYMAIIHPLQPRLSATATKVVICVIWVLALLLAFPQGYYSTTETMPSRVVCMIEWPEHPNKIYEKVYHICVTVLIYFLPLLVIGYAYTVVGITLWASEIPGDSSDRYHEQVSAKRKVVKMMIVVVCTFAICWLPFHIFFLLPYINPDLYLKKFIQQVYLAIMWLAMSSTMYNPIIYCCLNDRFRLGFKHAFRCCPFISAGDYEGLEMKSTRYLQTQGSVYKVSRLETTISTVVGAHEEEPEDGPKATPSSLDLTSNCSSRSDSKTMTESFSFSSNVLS
T11 sequence (P33032 whole entry): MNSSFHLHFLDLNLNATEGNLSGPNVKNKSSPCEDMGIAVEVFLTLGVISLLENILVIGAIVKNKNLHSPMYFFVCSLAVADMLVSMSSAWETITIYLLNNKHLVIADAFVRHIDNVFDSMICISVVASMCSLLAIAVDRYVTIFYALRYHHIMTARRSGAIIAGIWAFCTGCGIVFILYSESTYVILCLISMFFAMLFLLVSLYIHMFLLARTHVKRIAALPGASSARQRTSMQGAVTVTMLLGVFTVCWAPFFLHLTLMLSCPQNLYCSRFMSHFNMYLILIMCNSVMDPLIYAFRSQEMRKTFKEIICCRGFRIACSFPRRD

| Compound | A7: inhibition of radioligand binding (Human μ-opioid (MOP); FlashPlate) | A1: inhibition of radioligand binding (Human δ-opioid (DOP); FlashPlate) | A8: inhibition of radioligand binding (Human neurokinin (NK1); filtration) | A11: inhibition of radioligand binding (Mouse urotensin (mUR2); FlashPlate) | A2: inhibition of radioligand binding (Human κ-Opioid (KOP); filtration) | A3: inhibition of radioligand binding (Human Melanocortin (MC3); FlashPlate) | A10: inhibition of radioligand binding (Human opioid (ORL1); FlashPlate) | A9: inhibition of radioligand binding ([1]; FlashPlate) | A4: inhibition of radioligand binding (Human Melanocortin (MC4); FlashPlate) | A6: inhibition of radioligand binding ([2]; [125I]-S36057, FlashPlate) | A5: inhibition of radioligand binding (Human melanocortin (MC5); FlashPlate) | further results |
| --- | --- | --- | --- | --- | --- | --- | --- | --- | --- | --- | --- | --- |
| COCC1OC(OCc2ccc3ccccc3c2)C(NC(=O)CCN)C(OCc2ccc(-c3ccccc3)cc2)C1O (stereo not shown) [compound 243] | − (“−” indicates less than 50% inhibition at 10 μM) | − (“−” indicates less than 50% inhibition at 10 μM) | + (“+” indicates greater than 50% inhibition at 10 μM) | − (“−” indicates less than 50% inhibition at 10 μM) | − (“−” indicates less than 50% inhibition at 10 μM) | − (“−” indicates less than 50% inhibition at 10 μM) | − (“−” indicates less than 50% inhibition at 10 μM) | − (“−” indicates less than 50% inhibition at 10 μM) | + (“+” indicates greater than 50% inhibition at 10 μM) | − (“−” indicates less than 50% inhibition at 10 μM) | + (“+” indicates greater than 50% inhibition at 10 μM) | – |
| COCC1OC(OCCc2ccccc2)C(NC(=O)CCCNC(=N)N)C(OCc2ccc(Cl)cc2)C1O (stereo not shown) [compound 223] | − (“−” indicates less than 50% inhibition at 10 μM) | − (“−” indicates less than 50% inhibition at 10 μM) | + (“+” indicates greater than 50% inhibition at 10 μM) | − (“−” indicates less than 50% inhibition at 10 μM) | − (“−” indicates less than 50% inhibition at 10 μM) | − (“−” indicates less than 50% inhibition at 10 μM) | − (“−” indicates less than 50% inhibition at 10 μM) | − (“−” indicates less than 50% inhibition at 10 μM) | + (“+” indicates greater than 50% inhibition at 10 μM) | + (“+” indicates greater than 50% inhibition at 10 μM) | + (“+” indicates greater than 50% inhibition at 10 μM) | – |
| NCCC(=O)NC1C(OCc2ccc3ccccc3c2)OC(COCc2ccccc2)C(O)C1OCc1ccccc1 (stereo not shown) [compound 451] | – | – | – | – | – | – | – | – | – | – | – | A7: inhibition of radioligand binding (Human μ-opioid (MOP); human MOP membranes): − (“−” indicates less than 50% inhibition at 10 μM); A1: inhibition of radioligand binding (Human δ-opioid (DOP); human DOP membranes): − (“−” indicates less than 50% inhibition at 10 μM); A8: inhibition of radioligand binding (Human neurokinin (NK1); human NK1 membranes): + (“+” indicates greater than 50% inhibition at 10 μM); A11: inhibition of radioligand binding (Mouse urotensin (mUR2); mouse mUR2 membranes): − (“−” indicates less than 50% inhibition at 10 μM); A2: inhibition of radioligand binding (Human κ-Opioid (KOP); human KOP membranes): − (“−” indicates less than 50% inhibition at 10 μM); A3: inhibition of radioligand binding (Human Melanocortin (MC3); human MC3 membranes): − (“−” indicates less than 50% inhibition at 10 μM); A10: inhibition of radioligand binding (Human opioid (ORL1); human ORL1 membranes): − (“−” indicates less than 50% inhibition at 10 μM); A9: inhibition of radioligand binding ([1]; human NPY-Y1 membranes): − (“−” indicates less than 50% inhibition at 10 μM); A4: inhibition of radioligand binding (Human Melanocortin (MC4); human MC4 membranes): + (“+” indicates greater than 50% inhibition at 10 μM); A6: inhibition of radioligand binding ([2]; [125I]-S36057, human MCH1 membranes): − (“−” indicates less than 50% inhibition at 10 μM); A5: inhibition of radioligand binding (Human melanocortin (MC5); human MC5 membranes, 10 µM): − (“−” indicates less than 50% inhibition at 10 μM) |
| CO[C@H]1[C@H](O)[C@@H](COCc2ccccc2)OC(OCc2ccc3ccccc3c2)[C@@H]1NC(=O)CCCNC(=N)N (stereo partly shown) [compound 77] | – | – | – | – | – | – | – | – | – | – | – | A7 radioligand binding inhibition (Human μ-opioid (MOP); human μ-opioid (MOP) membranes): + (“+” indicates greater than 50% inhibition at 10 μM); A1 radioligand binding inhibition (Human δ-opioid (DOP); human δ-opioid (DOP) membranes): − (“−” indicates less than 50% inhibition at 10 μM); A8 radioligand binding inhibition (Human neurokinin (NK1); human neurokinin NK1 membranes): + (“+” indicates greater than 50% inhibition at 10 μM); A11 radioligand binding inhibition (Mouse urotensin (mUR2); mouse urotensin mUR2 membranes): − (“−” indicates less than 50% inhibition at 10 μM); A2 radioligand binding inhibition (Human κ-Opioid (KOP); human κ-opioid (KOP) membranes): − (“−” indicates less than 50% inhibition at 10 μM); A3 radioligand binding inhibition (Human Melanocortin (MC3); human melanocortin MC3 membranes): − (“−” indicates less than 50% inhibition at 10 μM); A10 radioligand binding inhibition (Human opioid (ORL1); human ORL1 membranes): − (“−” indicates less than 50% inhibition at 10 μM); A9 radioligand binding inhibition ([1]; human NPY-Y1 membranes): − (“−” indicates less than 50% inhibition at 10 μM); A4 radioligand binding inhibition (Human Melanocortin (MC4); human melanocortin MC4 membranes): − (“−” indicates less than 50% inhibition at 10 μM); A6 radioligand binding inhibition ([2]; human MCH1 membranes): − (“−” indicates less than 50% inhibition at 10 μM); A5 radioligand binding inhibition (Human melanocortin (MC5); human melanocortin MC5 membranes): + (“+” indicates greater than 50% inhibition at 10 μM) |
| CSC1OC(COCc2ccc3ccccc3c2)C(O)C(OCc2ccccc2)C1NC(=O)CCCNC(=N)N (stereo not shown) [compound 264] | − (“−” indicates less than 50% inhibition at 10 μM) | − (“−” indicates less than 50% inhibition at 10 μM) | + (“+” indicates greater than 50% inhibition at 10 μM) | − (“−” indicates less than 50% inhibition at 10 μM) | − (“−” indicates less than 50% inhibition at 10 μM) | − (“−” indicates less than 50% inhibition at 10 μM) | − (“−” indicates less than 50% inhibition at 10 μM) | − (“−” indicates less than 50% inhibition at 10 μM) | − (“−” indicates less than 50% inhibition at 10 μM) | − (“−” indicates less than 50% inhibition at 10 μM) | − (“−” indicates less than 50% inhibition at 10 μM) | – |
